Results: US12435294B2, “Prevention of the oxidation of perfumery raw materials and food raw materials” (Firmenich SA, priority 2018, dated 2025)
Read-outs that look alike come from different tables or passages of the source.

Key:
[1] = POV reduction in non-citrus essential oil: pine oil Siberian; conditions: 4 days
Procedure: (§1) For each oil, 20 mL was placed in separate 30 mL glass vials, and subjected to the following procedure for 8 days on a daily basis; the vial was opened to refresh the atmospheric headspace, then reclosed and shaken to maximize the gas/liquid contact, then stored on the benchtop under ambient laboratory temperature and lighting conditions. This procedure was designed to mimic the typical handling of a container in a production setting, in which the oil gets consumed in many small aliquots, rather than an entire container at a time.
(§2) On Day 4, each oil sample was split in half, so two 10 mL aliquots were placed in separate vials to create a “Treated” and an “Untreated” sample. To the Treated sample of each oil type, AKG-DiTMEEA was added as per the Dosing chart below. […] The daily opening, shaking, and standing procedure continued for another four days until the POV measurements were taken. It can be seen that 8 days of such handling of the untreated oils caused significant increases in POV measurement.
For this reason, two levels of AKG-DiTMEEA treatment were tried, ×2 and ×4 the treatment used on the other oils. […] A different, lower molecular weight 2-oxoacid salt may be a better choice.

[2] = POV reduction in non-citrus essential oil: cedarwood oil Virginian; conditions: 4 days treatment, 0.2 mL in 10 mL
Procedure: as §1, §2

[3] = POV reduction in consumer product spiked with oxidized limonene: antiperspirant stick; conditions: 1% (w/w)
[4] = POV reduction in non-citrus essential oil: petitgrain oil; conditions: 4 days treatment, 0.2 mL in 10 mL
Procedure: as §1, §2

[5] = POV reduction in non-citrus essential oil: cinnamon leaf oil; conditions: 4 days treatment, 0.2 mL in 10 mL
Procedure: as §1, §2

[6] = POV reduction in non-citrus essential oil: lavender oil; conditions: 4 days treatment, 0.2 mL in 10 mL
Procedure: as §1, §2

[7] = POV reduction in non-citrus essential oil: basil oil; conditions: 4 days treatment, 0.2 mL in 10 mL
Procedure: as §1, §2

[8] = POV reduction in non-citrus essential oil: patchouli oil; conditions: 4 days treatment, 0.2 mL in 10 mL
Procedure: as §1, §2

[9] = POV reduction in non-citrus essential oil: star anise oil; conditions: 4 days treatment, 0.2 mL in 10 mL
Procedure: as §1, §2

[10] = POV reduction in sunflower oil; conditions: 0.5081 g in 15 mL sunflower oil
[11] = POV reduction in non-citrus essential oil: coriander oil; conditions: 4 days treatment, 0.2 mL in 10 mL
Procedure: as §1, §2

[12] = pH of aqueous solution; assay type: physicochemical; conditions: solution of 0.114 g in 10 mL of water
[13] = POV reduction in model citrus perfume (mixed citrus oil in 90/10 v/v ethanol/water)
[14] = leading to evolution of carbon dioxide and pyruvic acid; Krebs 1942; cited from earlier work
[15] = POV reduction in autoxidized limonene; conditions: 200 mg in 20 mL autoxidized limonene
Procedure: The vial was shaken once and allowed to stand for 50 minutes. No further treatment was done prior to the POV testing. […] POV before treatment was 65.97 mEq./L, and POV after treatment was 17.21 mEq./L. […] The vial was shaken once and allowed to stand, while being monitored for POV value as a function of time. […] The vial was shaken once and allowed to stand, while being monitored for POV value as a function of time.

[16] = Solubility / miscibility observed on addition to the treated material; conditions: 200 mg in 20 mL
[17] = Siberian (x2 Treatment Level), 0.2 mL in 5 mL
[18] = Siberian (x4 Treatment Level), 0.4 mL in 5 mL
[19] = 8 days* (second line, asterisk not explained)
[20] = 2880 min (48 hrs) since addition

SMILES: COCCOCCN(CCOCCOC)CCOCCOC.COCCOCCN(CCOCCOC)CCOCCOC.O=C(O)CCC(=O)C(=O)O [AKG-diTMEEA]
- % Reduction in POV [1, 17]: 48.4%
- POV of Treated Oil [1, 17]: 24.8 mmol/L
- % Reduction in POV [1, 18]: 68.4%
- POV of Treated Oil [1, 18]: 15.21 mmol/L
- % Reduction in POV [2]: 95.2%
- POV of Treated Oil [2]: 0.72 mmol/L
- POV of treated APS ([3]; 150 minutes since addition, spiked with oxidized limonene): 3.7 mmol/L
- % Reduction in POV ([3]; 150 minutes): 71.3%
- % Reduction in POV ([3]; 310 minutes (5.17 h)): 78.3%
- POV of treated APS ([3]; 310 minutes (5.17 h)): 3.03 mmol/L
- % Reduction in POV ([3]; 26 hrs): 83.2%
- POV of treated APS ([3]; 26 hrs): 2.46 mmol/L
- % Reduction in POV ([3]; 4 days): 83.8%
- POV of treated APS ([3]; 4 days): 2.04 mmol/L
- % Reduction in POV [3, 19]: 86.6%
- POV of treated APS [3, 19]: 1.8 mmol/L
- % Reduction in POV ([3]; 8 days): 87.0%
- POV of treated APS ([3]; 8 days): 1.77 mmol/L
- % Reduction in POV ([3]; 15 days): 88.4%
- POV of treated APS ([3]; 15 days): 1.50 mmol/L
- % Reduction in POV ([3]; 26 days): 88.7%
- POV of treated APS ([3]; 26 days): 1.42 mmol/L
- % Reduction in POV [4]: 79.9%
- POV of Treated Oil [4]: 4.28 mmol/L
- % Reduction in POV [5]: 87.5%
- POV of Treated Oil [5]: 0.57 mmol/L
- % Reduction in POV [6]: 76.3%
- POV of Treated Oil [6]: 5.83 mmol/L
- % Reduction in POV [7]: 89.6%
- POV of Treated Oil [7]: 2.49 mmol/L
- % Reduction in POV [8]: 100.0%
- POV of Treated Oil [8]: 0.00 mmol/L
- % Reduction in POV [9]: 89.2%
- POV of Treated Oil [9]: 0.38 mmol/L
- POV of treated oil ([10]; 65 minutes since addition): 11.72 mmol/L
- % Reduction in POV ([10]; 65 minutes): 29.2%
- % Reduction in POV ([10]; 180 mins (3 hrs)): 44.5%
- POV of treated oil ([10]; 180 mins (3 hrs)): 9.19 mmol/L
- % Reduction in POV ([10]; 1320 mins (22 hrs)): 65.0%
- POV of treated oil ([10]; 1320 mins (22 hrs)): 5.80 mmol/L
- % Reduction in POV ([10]; 23 days): 88.7%
- POV of treated oil ([10]; 23 days): 2.10 mmol/L
- % Reduction in POV [11]: 89.7%
- POV of Treated Oil [11]: 2.44 mmol/L

SMILES: O=C(O)CCC(=O)C(=O)O [α-ketoglutaric acid, alpha-ketoglutaric acid]
- measured pH [12]: 1.75
- reduction in the POV of the formulated perfume (in words) [13]: complete reduction

SMILES: O=C(O)CC(=O)C(=O)O [oxaloacetic acid]
- POV of Treated Perfume ([13]; 0.0 min, approximately 166 mg (0.83% w/v) in 20 mL model perfume (Example 19)): 9.44 mmol/L
- POV of Treated Perfume ([13]; 27 min, 0.83% w/v in 20 mL model perfume (Example 19)): 5.90 mmol/L
- POV of Treated Perfume ([13]; 245 min, 0.83% w/v in 20 mL model perfume (Example 19)): 1.91 mmol/L
- reduction in the POV of the formulated perfume (in words) ([13]; 24 hours after treatment): complete reduction
- POV of Treated Perfume ([13]; […] (24 hours), 0.83% w/v in 20 mL model perfume (Example 19), indistinguishable from blank): 0.0 indistinguishable from mmol/L
- stability in aqueous solutions [14]: unstable in aqueous solutions

SMILES: O=C(O)C(=O)c1ccccc1 [phenylglyoxylic acid]
- POV ([15]; 40 min since addition): 37.035 mEq/L
- POV reduction ([15]; 40 min since addition): 17.3%
- POV ([15]; 150 min since addition): 34.086 mEq/L
- POV reduction ([15]; 150 min since addition): 23.9%
- POV ([15]; 190 min since addition): 29.963 mEq/L
- POV reduction ([15]; 190 min since addition): 33.1%
- POV [15, 20]: 17.265 mEq/L
- POV reduction [15, 20]: 61.5%
- solubility in autoxidized limonene (in words) [16]: dissolved
